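Protocol summary: plate cells (96-well), add compound at 5 concentrations, incubate 48 h, interpolate endpoints linearly. GI50 = concentration required for 50% inhibition of growth. TGI: concentration producing complete growth inhibition.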
How the values were obtained:
Test in all cases: inhibition of tumour cell growth, NCI panel, 48 h
MOLT-4 leukemia = tested on: MOLT-4 leukemia
OVCAR-4 ovarian = tested on: OVCAR-4 ovarian
PC-3 prostate = tested on: PC-3 prostate
A498 renal = tested on: A498 renal
HCC-2998 colon = tested on: HCC-2998 colon
SF-268 CNS = tested on: SF-268 CNS
SF-539 CNS = tested on: SF-539 CNS
RXF 393 renal = tested on: RXF 393 renal
ACHN renal = tested on: ACHN renal
SF-295 CNS = tested on: SF-295 CNS
HL-60(TB) leukemia = tested on: HL-60(TB) leukemia
SW-620 colon = tested on: SW-620 colon
MDA-MB-231 breast = tested on: MDA-MB-231 breast
U251 CNS = tested on: U251 CNS
NCI-H23 lung = tested on: NCI-H23 lung
SR leukemia = tested on: SR leukemia
COLO 205 colon = tested on: COLO 205 colon
HOP-62 NSCLC = tested on: HOP-62 NSCLC
KM12 colon = tested on: KM12 colon
IGROV1 ovarian = tested on: IGROV1 ovarian
SNB-19 CNS = tested on: SNB-19 CNS
HCT-116 colon = tested on: HCT-116 colon
786-0 renal = tested on: 786-0 renal
SK-OV-3 ovarian = tested on: SK-OV-3 ovarian
MDA-MB-435 = tested on: MDA-MB-435
NCI-H460 lung = tested on: NCI-H460 lung
UO-31 renal = tested on: UO-31 renal
RPMI-8226 leukemia = tested on: RPMI-8226 leukemia
UACC-257 melanoma = tested on: UACC-257 melanoma
CCRF-CEM leukemia = tested on: CCRF-CEM leukemia

O=C1NC(=NC23CC4CC(CC(C4)C2)C3)N/C1=C\c1ccc2ncccc2n1
TGI (MOLT-4 leukemia): 2020 nM | GI50 (OVCAR-4 ovarian): 451 nM | TGI (OVCAR-4 ovarian): 3090 nM | GI50 (PC-3 prostate): 334 nM | TGI (PC-3 prostate): 6230 nM | GI50 (A498 renal): 175 nM | TGI (A498 renal): 902 nM | GI50 (HCC-2998 colon): 491 nM | TGI (HCC-2998 colon): 4450 nM | GI50 (SF-268 CNS): 608 nM | TGI (SF-268 CNS): 5630 nM | GI50 (SF-539 CNS): 128 nM | TGI (SF-539 CNS): 1110 nM | GI50 (RXF 393 renal): 239 nM | TGI (RXF 393 renal): 995 nM | GI50 (ACHN renal): 305 nM | TGI (ACHN renal): 1900 nM | GI50 (SF-295 CNS): 251 nM | TGI (SF-295 CNS): 4590 nM | GI50 (HL-60(TB) leukemia): 565 nM | TGI (HL-60(TB) leukemia): 3670 nM | GI50 (SW-620 colon): 425 nM | TGI (SW-620 colon): 6420 nM | GI50 (MDA-MB-231 breast): 557 nM | TGI (MDA-MB-231 breast): 4820 nM | GI50 (U251 CNS): 555 nM | TGI (U251 CNS): 11300 nM | GI50 (NCI-H23 lung): 283 nM | TGI (NCI-H23 lung): 1080 nM | GI50 (SR leukemia): 224 nM | TGI (SR leukemia): 779 nM | GI50 (COLO 205 colon): 319 nM | TGI (COLO 205 colon): 2940 nM | GI50 (HOP-62 NSCLC): 514 nM | TGI (HOP-62 NSCLC): 4540 nM | GI50 (KM12 colon): 683 nM | TGI (KM12 colon): 9840 nM | GI50 (IGROV1 ovarian): 257 nM | TGI (IGROV1 ovarian): 1410 nM | GI50 (SNB-19 CNS): 261 nM | TGI (SNB-19 CNS): 4210 nM | GI50 (HCT-116 colon): 250 nM | TGI (HCT-116 colon): 3720 nM | GI50 (786-0 renal): 371 nM | TGI (786-0 renal): 2350 nM | GI50 (SK-OV-3 ovarian): 245 nM | TGI (SK-OV-3 ovarian): 1400 nM | GI50 (MDA-MB-435): 537 nM | TGI (MDA-MB-435): 5140 nM | GI50 (NCI-H460 lung): 510 nM | TGI (NCI-H460 lung): 5280 nM | GI50 (UO-31 renal): 233 nM | TGI (UO-31 renal): 1970 nM | GI50 (RPMI-8226 leukemia): 316 nM | TGI (RPMI-8226 leukemia): 1500 nM | GI50 (UACC-257 melanoma): 652 nM | TGI (UACC-257 melanoma): 5820 nM | GI50 (CCRF-CEM leukemia): 299 nM | TGI (CCRF-CEM leukemia): 3030 nM

From PubChem BioAssay (NCI)
